Test results from publication PMC4087041, “Effect of the Piperazine Unit and Metal-Binding Site Position on the Solubility and Anti-Proliferative Activity of Ruthenium(II)- and Osmium(II)- Arene Complexes of Isomeric Indolo[3,2-c]quinoline—Piperazine Hybrids” (Inorganic Chemistry, 2014).
Read-outs that look alike come from different tables or passages of the source. Values belong to the compound of their own block, whether it stands above or below them.

Tests used:
[1] = tested on: SK-N-MC neuroepithelioma cells; test: MTT assay, inhibition of growth of SK-N-MC cells; format: cell-based, Human; conditions: 72 h, medium with diferric transferrin 1.25 μM, mean ± SD (three experiments), read-out: IC50 at inhibiting the growth of SK-N-MC neuroepithelioma cells
Experimental: Human SK-N-MC neuroepithelioma cells were obtained from the American Type Culture Collection (ATCC; Manassas, VA). The SK-N-MC cell type was grown as described previously.[51]
The effect of complexes [1a,b]Cl–[3a,b]Cl on the cellular proliferation of SK-N-MC cells was examined using the 1-(4,5-dimethylthiazol-2-yl)-2,5-diphenyl-tetrazolium (MTT) assay by standard techniques.[52],[53] Human SK-N-MC cells were chosen for these studies as the antiproliferative effect of metal complexes has been extensively examined in this cell type.[52]−[54] MTT reduction is proportional to viable cell counts using SK-N-MC cells.[51] SK-N-MC cells were seeded at 1.5 × 10^4 cells/well in 96-well microtiter plates in a medium containing the compounds (0–50 μM) and human diferric transferrin (Tf) at 1.25 μM ([Fe] = 2.5 μM). Control samples contained Tf (1.25 μM) in the absence of the compounds. […] It is essential to add to the media when assessing the antiproliferative activity of the ligands used as positive controls, namely, desferrioxamine (DFO), di-2-pyridylketone 4,4-dimethyl-3-thiosemicarbazone (Dp44mT), and Doxorubicin.[61] The cells were incubated at 37 °C for 72 h, after which 10 μL of MTT solution (stock solution: 5 mg/mL) was added to each well and incubated for 2 h at 37 °C. After cell solubilization using 100 μL of 10% SDS–50% isobutanol in 0.01 M HCl, the plates were read at 570 nm using a scanning multiwell spectrophotometer. The inhibitory concentration (IC50) was defined as the concentration of the compound necessary to reduce the absorbance to 50% of the untreated control.

[2] = Hydrolysis / stability in aqueous media by HPLC; format: physicochemical; conditions: for Estimated half-lifetime of the chlorido species: 75 μM solution in 20 mM phosphate buffer at pH 7.40, HPLC with UV detection at 300 nm; for Fraction of complex hydrolyzed after 24 h: 20 mM NaH2PO4/Na2HPO4 buffer at pH 7.40, 24 h, HPLC (Figure S4)
Experimental: One-dimensional (1D) ^1H and ^13C NMR and two-dimensional (2D) ^1H–^1H COSY, ^1H–^1H TOCSY, ^1H–^1H ROESY or ^1H–^1H NOESY, ^1H–^13C HSQC, and ^1H–^13C HMBC NMR spectra were recorded on two Bruker Avance III spectrometers at 500.32 or 500.10 (^1H), and 125.82 or 125.76 (^13C) MHz, respectively, by using DMSO-d6 as a solvent at room temperature and standard pulse programs. ^1H and ^13C shifts are quoted relative to the solvent residual signals. The atom numbering scheme used for NMR assignments is depicted in Supporting Information, Scheme S1. Electrospray ionization mass spectrometry (ESI-MS) was carried out with a Bruker Esquire 3000 instrument, and the samples were dissolved in methanol. Elemental analyses were performed at the Microanalytical Laboratory of the University of Vienna with a PerkinElmer 2400 CHN Elemental Analyzer (PerkinElmer, Waltham, MA). Hydrolysis studies were undertaken on a ThermoFisher Dionex UltiMate 3000 HPLC (Waltham, MA) device. The column compartment was kept at 298 K. A Hypersil Gold C18 Reversed phase Silica Column (250 × 4.6 mm, 5 μm particle size, ThermoFisher; Waltham, MA) equipped with a guard column was used. The complexes were dissolved in either pure deionized water or phosphate buffer at pH 7.40 so that the final concentrations were 100 mM or 75 μM, respectively. Samples were automatically injected into the HPLC, and separation of the hydrolysis products was achieved by applying gradient elution (5–80% or 10–50% acetonitrile in 15 mM aqueous formic acid). Detection and quantification of the peaks was conducted using the ThermoFisher Dionex DAD-3000RS UV detector (Waltham, MA) at a wavelength of 300 nm and the Chromeleon 7 software package (ThermoFisher Dionex, Sunnyvale, CA).
Their stability in deionized water (Supporting Information, Figure S3) is very similar to that in buffered solution at physiological pH (Supporting Information, Figure S4; 20 mM NaH2PO4/Na2HPO4 buffer at pH 7.40). […] Attempts to establish the nature of the predominant hydrolysis reactions were then performed. The fractions containing the two peaks from the hydrolysis of [2a]Cl were collected and subjected to high-resolution ESI mass spectrometry. The most abundant mass at m/z 373.1397 could be attributed to the doubly charged fragment [M–2Cl]^2+, whereas the second peak at m/z 736.2786 was assigned to the hydroxido species [M–2Cl+OH]^+, clearly stemming from hydrolysis of the chlorido ligand.
Data were recorded every hour over 24 h using HPLC with UV detection at 300 nm (see Experimental Section for details). Quantification was done by normalizing the AUC to the AUC at 0 h.

[3] = Stability in DMSO by ESI mass spectrometry; format: physicochemical; conditions: DMSO solution, up to 19 h old, diluted with methanol 1:100, ESI-MS
Excerpt: Complexes [3a]Cl and [3b]Cl remain intact when dissolved in DMSO.

Compound: CC(=O)N(O)CCCCCNC(=O)CCC(=O)N(O)CCCCCNC(=O)CCC(=O)N(O)CCCCCN [DFO, desferrioxamine, reference compound]
IC50 ([1]; Homo sapiens, SK-N-MC): 9.83 ± 0.39 µM

Compound: COc1cccc2c1C(=O)c1c(O)c3c(c(O)c1C2=O)C[C@@](O)(C(=O)CO)C[C@@H]3O[C@H]1C[C@H](N)[C@H](O)[C@H](C)O1 [DOX, doxorubicin, reference compound]
IC50 ([1]; Homo sapiens, SK-N-MC): 0.15 ± 0.05 µM

Compound: (η^6-p-Cymene)[6-(4-methylpiperazin-1-yl)-κN-(pyridin-2-yl-methylene)-11H-indolo[3,2-c]quinolin-2-κN-amine]chloridoosmium(II) Chloride [[1b]Cl]
IC50 [1]: > 50 µM

Compound: (η^6-p-Cymene)[6-(4-methylpiperazin-1-yl)-κN-(pyridin-2-yl-methylene)-11H-indolo[3,2-c]quinolin-8-κN-amine]chloridoosmium(II) Chloride [[3b]Cl]
IC50 [1]: 41.2 ± 2.37 µM | Stability when dissolved in DMSO [3]: remain intact

Compound: (η^6-p-Cymene)[6-(4-methylpiperazin-1-yl)-κN-(pyridin-2-yl-methylene)-11H-indolo[3,2-c]quinolin-8-κN-amine]chloridoruthenium(II) Chloride [[3a]Cl]
IC50 [1]: > 50 µM | Stability when dissolved in DMSO [3]: remain intact

Continued by falling IC50 [1], values first:

IC50 [1]: 39.8 ± 2.07 µM
Compound: (η^6-p-Cymene)[6-(4-methylpiperazin-1-yl)-κN-(pyridin-2-yl-methylene)-11H-indolo[3,2-c]quinolin-2-κN-amine]chloridoruthenium(II) Chloride [[1a]Cl]

IC50 [1]: 19.4 ± 1.28 µM | Estimated half-lifetime of the chlorido species [2]: approximately 6 h | Fraction of complex hydrolyzed after 24 h [2]: greater than 90%
Compound: (η^6-p-Cymene)[6-(4-methylpiperazin-1-yl)-κN-(pyridin-2-yl-methylene)-11H-indolo[3,2-c]quinolin-4-κN-amine]chloridoosmium(II) Chloride [[2b]Cl]

IC50 [1]: 18.4 ± 2.22 µM | Estimated half-lifetime of the chlorido species [2]: approximately 6 h | AUC of third (minor) hydrolysis species compared to the starting material ([2]; 75 μM solution in 20 mM phosphate buffer at pH 7.40, after 24 h): approximately 12% | Fraction of complex hydrolyzed after 24 h [2]: greater than 90%
Compound: (η^6-p-Cymene)[6-(4-methylpiperazin-1-yl)-κN-(pyridin-2-yl-methylene)-11H-indolo[3,2-c]quinolin-4-κN-amine]chloridoruthenium(II) Chloride [[2a]Cl]

IC50 [1]: 0.004 ± 0.003 µM
Compound: CN(C)C(=S)NN=C(c1ccccn1)c1ccccn1 [Dp44mT, di-2-pyridylketone 4,4-dimethyl-3-thiosemicarbazone, reference compound]
